Results on 25 compounds are retold here after patent publication US20240034717A1, “NOVEL POTASSIUM CHANNEL INHIBITORS” (Saniona A/S, priority 2020, published 2024).

“And” between values parts separate entries of the source, which are not always exact repeats. Equal values may be shown once. Some results are limits rather than exact numbers.

A short description of one series: physchem. The note with it: for solubility at 16 h: 25 °C, pH 7.4, aqueous buffer, kinetic from dmso stock. On the procedure: 2.79 g of K2HPO4 and 0.54 g of KH2PO4 was dissolved in 390 mL of milliQ water. pH was adjusted to 7.4 using 1N HCl/1N NaOH and final volume was made up to 400 mL with milliQ water.
In case of compounds not soluble/less quantity submission, 40/20/10Mm stocks were prepared and used for experiment.
Assay Procedure: • 245 μL of 50 mM phosphate buffer then 5 μL each of test compound/standards (80 mM) in their respective positions was added to the 1.1 mL 96 well plate. • DMSO Controls was prepared by taking 245 μL of 100% DMSO then 5 μL each of test compound in their respective positions and added to the 1.1 mL 96 well plate • Plate was incubated with mixing at 1600 RPM for 16 hours at room temperature (˜23 MC). • After incubation, samples were filtered using Millipore plates. • Filtrates were analysed by HPLC-UV.
Solubility is calculated using the following formula: […]

Series [1] has as its target erythrocyte KCa3.1 channels (Homo sapiens (Human), UniProt O15554). Kind of series: Erythrocyte KCa3.1 assay. As to conditions: human erythrocytes, A23187-activated KCa3.1; read-out: RBC K (in vitro) Human IC50 (μM) Potency category. Type of series: cell-based. On the procedure: Human blood was drawn from healthy human volunteers in a standard heparinized blood sampling vial (Vacutainer, Li/heparin, ED Bioscience, Plymouth, UK). The erythrocytes were packed by centrifugation, and the plasma and buffy coat were removed by aspiration. Erythrocytes were washed three times in the experimental salt solution and then stored at 0° C. until use. Blood samples from NMRI mice or from Wistar rats were treated similarly. The methodological principle is outlined in Macey et al. (1978) and further described in Strøbaek et al. (2013). Activation of the erythrocyte KCa3.1 channels were obtained by addition of the Ca^2+ ionophore A23187, which causes synchronized hyperpolarization, which is reported as a CCCP-mediated shift in the unbuffered extracellular pH of the erythrocyte suspension. Standard procedure: 3 mL unbuffered experimental salt solution (in mM: 2 KCl, 154 NaCl, 0.05 CaCl2) was heated to 37° C. with stirring. Packed erythrocytes were added (50 μL, final cytocrit 1.5%), and the extracellular pH (pHo) followed with a glass/calomel (pHG200-8/REF200, Radiometer, Denmark) electrode pair. CCCP (3 μL, final concentration 20 μM) was added followed by varying concentrations of test compounds (DMSO concentration constant). After pH stabilization at ˜7.2, A23187 (3 μL, final concentration 0.33 μM) was added to initiate the experiment. After the peak hyperpolarization was attained, the intracellular pH (pHi constant during the experiment) was found by haemolysing the erythrocytes via addition of 100 μL of Triton-X100.
The erythrocyte membrane potential, Vm, was calculated according to: […]
and the fractional remaining Ca^2+-activated K^+-conductance at the concentration C of blocker, fGK(C), was calculated from
where the K^+ equilibrium potential EK=−107 mV, the Cl^− equilibrium potential ECl=−12 mV and the Vm(0) and Vm(C) are the peak hyperpolarizations in the control and in the presence of a concentration of C of blocker respectively.
IC50 values for compounds were calculated from a plot of fGK(C) versus C by a fit to the Hill equation, using a custom program written in the IGOR-Pro software (WaveMetrics, Lake Oswego, OR, USA). All IC50-values are reported in μM.

Where [2] appears, read: 50 mM potassium phosphate buffer pH 7.40, 16 hr at ~25° C., incubation concentration 1600 μM.

The term solubility denotes how much of the substance goes into solution per volume. Read a high solubility as a readily soluble substance. As a reminder, the IC50 is the concentration that inhibits the measured activity by half. As for `CN1CCC1CN(CC(C)(C)O)C1(c2ccc(F)c(C(F)(F)F)c2)CC1` (stereo not drawn) [1-((1-(4-fluoro-3-(trifluoromethyl)phenyl)cyclopropyl)((1-methylazetidin-2-yl)methyl)amino)-2-methylpropan-2-ol], the solubility at 16 h in the series “physchem” was 597 µg/mL and 1600 µM. Moreover, the 50% inhibitory concentration (IC50) in series [1] was less than 1 µM.
Regarding `CC(C)(O)CN(CC1CCN1)C1(c2ccc(F)c(C(F)(F)F)c2)CC1` (stereo not drawn) [1-((azetidin-2-ylmethyl)(1-(4-fluoro-3-(trifluoromethyl)phenyl)cyclopropyl)amino)-2-methyl propan-2-ol], the solubility at 16 h in the series “physchem” is 755 µg/mL and 1600 µM. Further, the IC50 in series [1] was less than 0.3 µM.
Turning to `N[C@H]1CCC[C@H]1NC1(c2ccc(F)c(C(F)(F)F)c2)CC1` [(1R,2S)-N1-(1-(4-fluoro-3-(trifluoromethyl)phenyl)cyclopropyl)-cyclopentane-1,2-diamine], the solubility at 16 h in “physchem” is 480 µg/mL and 1400 µM. The IC50 in series [1] was less than 0.3 µM.
For the compound `N[C@H]1CCC[C@@H]1NC1(c2ccc(F)c(C(F)(F)F)c2)CC1` [(1S,2S)-N1-(1-(4-fluoro-3-(trifluoromethyl)phenyl)cyclopropyl)-cyclopentane-1,2-diamine], the solubility at 16 h in the series “physchem” is 239 µg/mL and 700 µM. The IC50 in series [1] is less than 1 µM.
Regarding `CN1CCC[C@H]1CN(C1(c2ccc(F)c(C(F)(F)F)c2)CC1)S(C)(=O)=O` [(S)-N-(1-(4-fluoro-3-(trifluoromethyl)phenyl)cyclopropyl)-N-((1-methylpyrrolidin-2-yl)methyl)methanesulfonamide], the solubility at 16 h in the series “physchem” is 621 µg/mL and 1600 µM. Also, the IC50 in series [1] is less than 0.3 µM.
Take `CS(=O)(=O)N(C[C@@H]1CCCN1)C1(c2ccc(F)c(C(F)(F)F)c2)CC1` [(S)-N-(1-(4-fluoro-3-(trifluoromethyl)phenyl)cyclopropyl)-N-(pyrrolidin-2-ylmethyl) methanesulfonamide]: in the series “physchem” (setting [2]), the “Measured Solubility in pH 7.4 phosphate buffer (mg/ml)” value turned out to be 0.3218 mg/ml and the “Measured Solubility in pH 7.4 phosphate buffer (μM)” value (“Measured Solubility … (μM)” for short) was found to be 800 μM. In addition, in series [1], the IC50 is less than 1 µM.
With `O=C(OC1CC1)N(C[C@@H]1CCCN1)C1(c2ccc(F)c(C(F)(F)F)c2)CC1` [Cyclopropyl (S)-(1-(4-fluoro-3-(trifluoromethyl)phenyl)cyclopropyl)(pyrrolidin-2-ylmethyl)carbamate], in the series “physchem”, the solubility at 16 h is 601 µg/mL and 1600 µM. Besides, the IC50 in series [1] is less than 0.3 µM.
Consider `CCOC(=O)N(CC(C)(C)N)C1(c2ccc(F)c(C(F)(F)F)c2)CC1` [Ethyl (2-amino-2-methylpropyl)(1-(4-fluoro-3-(trifluoromethyl)phenyl)cyclopropyl)carbamate], for which the solubility at 16 h in “physchem” was 607 µg/mL and 1500 µM. The IC50 in series [1] was less than 0.3 µM.
As for `CCOC(=O)N(C[C@H]1CCCN1)C1(c2ccc(F)c(C(F)(F)F)c2)CC1` [Ethyl (R)-(1-(4-fluoro-3-(trifluoromethyl)phenyl)cyclopropyl)(pyrrolidin-2-ylmethyl)carbamate], the solubility at 16 h in the series “physchem” was 616 µg/mL and 1500 µM. In addition, in series [1], the IC50 is less than 0.3 µM.
With `CCOC(=O)N(C[C@@H]1CCCN1C)C1(c2ccc(F)c(C(F)(F)F)c2)CC1` [Ethyl (S)-(1-(4-fluoro-3-(trifluoromethyl)phenyl)cyclopropyl)((1-methylpyrrolidin-2-yl)methyl) carbamate], in “physchem” (setting [2]), the “Measured Solubility in pH 7.4 phosphate buffer (mg/ml)” value is 0.5679 mg/ml and the “Measured Solubility … (μM)” value amounted to 1500 μM. Also, the IC50 in series [1] is less than 0.3 µM.
Consider `CCOC(=O)N(C[C@@H]1CCCN1)C1(c2ccc(F)c(C(F)(F)F)c2)CC1` [Ethyl (S)-(1-(4-fluoro-3-(trifluoromethyl)phenyl)cyclopropyl)(pyrrolidin-2-ylmethyl)carbamate], for which the solubility at 16 h in “physchem” was 594 µg/mL and 1400 µM. The IC50 in series [1] is less than 0.3 µM.
Regarding `CC(C)OC(=O)N(C[C@@H]1CCCN1)C1(c2ccc(F)c(C(F)(F)F)c2)CC1` [Isopropyl (S)-(1-(4-fluoro-3-(trifluoromethyl)phenyl)cyclopropyl)(pyrrolidin-2-ylmethyl)carbamate], the solubility at 16 h in the series “physchem” is 615 µg/mL and 1600 µM. The IC50 in series [1] is less than 0.3 µM.
`COC(=O)N1CC(N(C(=O)OC)C2(c3ccc(F)c(C(F)(F)F)c3)CC2)C1` [Methyl 3-((1-(4-fluoro-3-(trifluoromethyl)phenyl)cyclopropyl) (methoxycarbonyl)amino)azetidine-1-carboxylate]: the solubility at 16 h in “physchem” was 27.9 µg/mL and 100 µM. The IC50 in series [1] was less than 0.3 µM.
Regarding `COC(=O)N(CC(C)(C)NO)C1(c2ccc(F)c(C(F)(F)F)c2)CC1` [Methyl (1-(4-fluoro-3-(trifluoromethyl)phenyl)cyclopropyl)(2-(hydroxyamino)-2-methylpropyl)carbamate], the solubility at 16 h in the series “physchem” is 138 µg/mL and 400 µM. Further, the IC50 in series [1] is less than 0.3 µM.
For `COC(=O)N(CC1CCN1C)C1(c2ccc(F)c(C(F)(F)F)c2)CC1` (stereo not drawn) [Methyl (1-(4-fluoro-3-(trifluoromethyl)phenyl)cyclopropyl)((1-methylazetidin-2-yl)methyl)carbamate], in the series “physchem”, the solubility at 16 h is 598 µg/mL and 1700 µM. Also, the IC50 in series [1] is less than 0.3 µM.
As for `COC(=O)N(CC(C)(C)NC(C)=O)C1(c2ccc(F)c(C(F)(F)F)c2)CC1` [Methyl (2-acetamido-2-methylpropyl)(1-(4-fluoro-3-(trifluoromethyl)phenyl)cyclopropyl)carbamate], the solubility at 16 h in the series “physchem” is 596 µg/mL and 1500 µM. In series [1], the IC50 is less than 1 µM.
Turning to `COC(=O)N(CC(C)(C)N)C1(c2cc(Cl)cc(Cl)c2)CC1` [Methyl (2-amino-2-methylpropyl)(1-(3,5-dichlorophenyl)cyclopropyl)carbamate], the solubility at 16 h in the series “physchem” is 578 µg/mL and 1600 µM. Moreover, in series [1], the IC50 is less than 0.3 µM.
As for `FC(F)(F)c1cccc(C2(NC[C@@H]3CCCN3)CCC2)c1` [N-{[(2S)-pyrrolidin-2-yl]methyl}-1-[3-(trifluoromethyl)phenyl]cyclobutan-1-amine], the IC50 in series [1] is less than 1 µM.
As to `O=C1CSc2ccccc2N1Cc1cccc(C(F)(F)F)c1` [NS6180, 4-[[3-(Trifluoromethyl)-phenyl]methyl]-2H-1,4-benzothiazin-3(4H)-one, reference compound], in “physchem”, the solubility at 16 h is 2.8 µM and 0.9 µg/mL. For the same compound, in “physchem” (16 h, pH 7.4), the “Measured Solubility … (μM)” value is 2.8 μM.
As to `COC(=O)N(CC(C)(C)N)C1(c2cccc(C(F)(F)F)c2)CCC1` [methyl N-(2-amino-2-methylpropyl)-N-{1-[3-(trifluoromethyl)phenyl]cyclobutyl}carbamate], in series [1], the IC50 was less than 0.3 µM.
Still for that read-out and setting: next, `COC(=O)N(CC(C)(C)N)C1(c2ccc(F)c(C(F)(F)F)c2)CCC1` [methyl N-(2-amino-2-methylpropyl)-N-{1-[4-fluoro-3-(trifluoromethyl)phenyl]cyclobutyl}carbamate]: less than 0.3 µM; `COC(=O)N(C[C@H]1CCCN1)C1(c2ccc(F)c(C(F)(F)F)c2)CCC1` [methyl N-{1-[4-fluoro-3-(trifluoromethyl)phenyl]cyclobutyl}-N-{[(2R)-pyrrolidin-2-yl]methyl}carbamate]: less than 0.3 µM; `COC(=O)N(C[C@@H]1CCCN1)C1(c2ccc(F)c(C(F)(F)F)c2)CCC1` [methyl N-{1-[4-fluoro-3-(trifluoromethyl)phenyl]cyclobutyl}-N-{[(2S)-pyrrolidin-2-yl]methyl}carbamate]: less than 0.3 µM.
Still for that read-out and setting: in the case of `COC(=O)N(C[C@H]1CCCN1)C1(c2cccc(C(F)(F)F)c2)CCC1` [methyl N-{[(2R)-pyrrolidin-2-yl]methyl}-N-{1-[3-(trifluoromethyl)phenyl]cyclobutyl}carbamate] it was less than 0.3 µM; in that of `COC(=O)N(C[C@@H]1CCCN1)C1(c2cccc(C(F)(F)F)c2)CCC1` [methyl N-{[(2S)-pyrrolidin-2-yl]methyl}-N-{1-[3-(trifluoromethyl)phenyl]cyclobutyl}carbamate], less than 0.3 µM.
